Test results: patent US20070077283A1, “METHOD OF ENHANCING TRANSMUCOSAL DELIVERY OF THERAPEUTIC COMPOUNDS” (Nastech Pharmaceutical Company Inc., priority 2005, published 2007)

Assays:
[1] = tested on: human-derived tracheal/bronchial epithelial cells (EpiAirway Tissue Model); assay: Transepithelial electrical resistance (TER) of an epithelial cell monolayer; assay type: cell-based; details: for activity at 1000 µM: Homo sapiens, Epithelial cell, 1 h, read-out: Mean % of Original TER Value
Protocol: Inserts are feed for each day of recovery. TER measurements were accomplished using the Endohm-12 Tissue Resistance Measurement Chamber connected to the EVOM Epithelial Voltohmmeter (World Precision Instruments, Sarasota, Fla.) with the electrode leads. The electrodes and a tissue culture blank insert were equilibrated for at least 20 minutes in MatTek medium with the power off prior to checking calibration. The background resistance was measured with 1.5 ml media in the Endohm tissue chamber and 300 μl media in the blank insert. The top electrode was adjusted so that it was close to, but not making contact with, the top surface of the insert membrane. Background resistance of the blank insert was about 5-20 ohms. […] TER values are a function of the surface area of the tissue. […] By this method of calculation, TER will be expressed as both Ohms*cm2 and percent original TER value. […] Several different lipid types (see Table 1) were screened to select for lipids that are capable of enhancing the permeation of a biological agent across an epithelial cell monolayer. […] A reduction in TER correlates with the ability to enhance the permeation of a molecule and biological agent across an epithelia.

[2] = tested on: human-derived tracheal/bronchial epithelial cells (EpiAirway Tissue Model); assay: in vitro
Protocol: Normal, human-derived tracheal/bronchial epithelial cells will serve as the model cell system for assessing the lipids listed in Table 1. The cells are supplied by MatTek Corp. (Ashland, Mass.) as the EpiAirway™ Tissue Model. The cells are provided as a confluent monolayer on a Millipore Milicell-CM cell culture insert with a pore size of 0.4 μM, inner diameter of 0.8 cm and surface area of 0.6 cm^2 and comprised of transparent hydrophilic Teflon (PTFE). Upon receipt, the membranes are cultured in 1 ml basal media (phenol red-free and hydrocortisone-free Dulbecco's Modified Eagle's Media (DMEM) at 37° C./5% CO2 for 24-48 hours before use. Inserts are feed for each day of recovery.
The amount of cell death was assayed by measuring the loss of lactate dehydrogenase (LDH) from the cells using a CytoTox 96 Cytotoxicity Assay Kit (Promega Corp., Madison, Wis.). A treatment of 1% Octylphenolpoly(ethyleneglycolether)x (Triton X-100™) diluted in PBS was used as a lysis control. One percent Triton X-100™ mediated cell lysis was normalized to 100%. For basal-lateral LDH levels, triplicates of 50 μl of the basal media were loaded into a 96-well assay plate. For apical LDH levels, 150 μl of Epi-Cm was added to the apical side of each chamber and mixed by pipeting. One hundred and fifty microliters was then removed and diluted 2-fold prior to performing the LDH assay. All apical LDH assay were performed in triplicate and with 50 μl of the diluted test solution. Fresh, cell-free culture medium will be used as a blank. Total LDH levels were determined by lysing cells in a final concentration of 0.9% Triton-X100™. Fifty microliters of substrate solution was added to each well and the plates incubated for 30 minutes at room temperature in the dark. Following incubation, 50 μl of stop solution was added to each well and the plates read on an optical density plate reader at […]. Cytotoxicity was expressed as a percentage calculated by subtracting the average absorbance of the PBS control wells as the endogenously released LDH level and expressing that value relative to the average Triton-X100 control, which represents total LDH content. [formula] Osmolality
For the instant application, phosphate buffered saline (PBS) served as a negative control for both the TER assay and LDH (cytotoxicity) assay. […] TER measurements and LDH levels were taken immediately after a one hour treatment of the cultured cells with each lipid, unless specified otherwrise.
TER reduction was expressed as the percent decrease in TER value from time zero to one hour post-treatment. Thus, greater percent reduction in TER represents less electrical resistance across the epithelial cell monolayer and consequently greater epithelial cell permeation. Cytotoxicity (LDH levels) for each lipid was expressed as a percent of the LDH levels measured after Triton-X100 treatment of the cells. Triton-X100™ LDH levels were normalized to 100%.

[3] = tested on: human-derived tracheal/bronchial epithelial cells (EpiAirway Tissue Model); assay: FITC-Dextran permeation assay across epithelial cell monolayer; assay type: cell-based; details: for Mean % FD3 Permeation: FITC-dextran 3000 (Table 4); for permeation of FD3 relative to negative controls: text summary of Table 4
Protocol: Each tissue insert was placed in an individual well containing 1 ml of MatTek basal media. On the apical surface of the inserts, 20 μl of test formulation was applied according to study design, and the samples were placed on a shaker (˜100 rpm) for 1.5 hours at 37° C. FITC-labeled dextran solution was added to inserts apically and a fluorescence measurement was taken from the basolateral media after the incubation period. Two hundred microliters of the basal media for each test formulation was transferred to a dark-wall fluorescent reading plate. Each test formulation was tested in triplicate. Fluorescent intensity was measured at 470 nM with the microplate fluorescence reader FLx800 (Bio-Tek Instruments, Inc., Winooski, Vt.). A FITC labeled dextran with a molecular weight of 3 kDA, 10 kDA, 20 kDA, 40 kDA, 70 kDA and/or 500 kDA was used to assess the ability of individual lipids to deliver a model protein across an epithelia.
Permeation is expressed as percent permeation and was calculated as follows: [formula] [formula] Terms
PBS and 0.3% Triton-X100™ served as […]. […] FD permeation was presented as the percent of FD that crossed from the apical side of the epithelial cell monolayer to the basolateral cell surface.

[4] = lipid 1000 μM, lower value = greater TER reduction (Table 4)
[5] = lipid 1000 μM, percent decrease in TER from time zero
[6] = lipid 1000 μM, percent of Triton-X100 LDH levels
[7] = lipid 125 μM, percent of Triton-X100 LDH levels
[8] = lipid 250 μM, percent of Triton-X100 LDH levels
[9] = lipid 500 μM, percent of Triton-X100 LDH levels
[10] = positive controls, concentration N/A (Special Sauce; 0.3% Triton-X100)
[11] = positive controls: Special Sauce 1X, 1% Triton (Table 4)

CCCCCCCCCCCCCCCCOC[C@H](COP(=O)(O)OCC[N+](C)(C)C)OC [2-O-Methyl-PAF, 1-O-Hexadecyl-2-O-Methyl-sn-Glycero-3-Phosphorylcholine]
Mean % of Original TER Value ([1]; lipid 500 μM (Table 4)): 8% | Mean % of Original TER Value [1, 4]: 2% | Mean % Relative Cytotoxic Effect (LDH) ([2]; lipid 500 μM (Table 4)): 18% | Mean % Relative Cytotoxic Effect (LDH) ([2]; lipid 1000 μM (Table 4)): 20% | Mean % FD3 Permeation ([3]; lipid 500 μM): 7% | Mean % FD3 Permeation ([3]; lipid 1000 μM): 16% | permeation of FD3 relative to negative controls [3]: enhanced the permeation of FD3 above that of the negative controls

CCCCCCCCCCCCC/C=C/[C@@H](O)[C@@H](N)CO[C@@H]1O[C@H](CO)[C@@H](O[C@@H]2O[C@H](CO)[C@H](O)[C@H](O)[C@H]2O)[C@H](O)[C@H]1O [Lactosyl(β) Sphingosine, D-Lactosyl-β1-1′-D-erythro-Sphingosine]
Mean TER Reduction 1 hr. Post-treatment [1, 5]: 95% | Cytotoxic Effect (LDH) 1 hr. Post-treatments [2, 6]: 14% | % FITC-Dextran Permeation FD10 ([3]; lipid 1000 μM): 5% | % FITC-Dextran Permeation FD40 ([3]; lipid 1000 μM): 2% | % FITC-Dextran Permeation FD3 ([3]; lipid 1000 μM (Table 5)): 8%

1-Alkyl-2-Hydroxy-sn-Glycero-3-Phosphocholine [Lyso-Platelet-Activation Factor]
Mean TER Reduction 1 hr. Post-treatment ([1]; lipid 62.5 μM): 48% | Mean TER Reduction 1 hr. Post-treatment ([1]; lipid 125 μM): 23% | Mean TER Reduction 1 hr. Post-treatment ([1]; lipid 250 μM): 29% | Mean TER Reduction 1 hr. Post-treatment ([1]; lipid 500 μM): 61% | Mean TER Reduction 1 hr. Post-treatment [1, 5]: 84% | Cytotoxic Effect (LDH) 1 hr. Post-treatments ([2]; lipid 62.5 μM, percent of Triton-X100 LDH levels): 2% | Cytotoxic Effect (LDH) 1 hr. Post-treatments [2, 7]: 3% | Cytotoxic Effect (LDH) 1 hr. Post-treatments [2, 8]: 6% | Cytotoxic Effect (LDH) 1 hr. Post-treatments [2, 9]: 22% | Cytotoxic Effect (LDH) 1 hr. Post-treatments [2, 6]: 34%

CC/C=C\C/C=C\C/C=C\C/C=C\C/C=C\C/C=C\CCC(=O)O[C@H](COCCCCCCCCCCCCCCCC)COP(=O)([O-])OCC[N+](C)(C)C [C16-22:6 PC, 1-O-Hexadecyl-2-Docosahexaenoyl-sn-Glycero-3-Phosphocholine]
Mean % of Original TER Value [1, 4]: 97% | Mean % Relative Cytotoxic Effect (LDH) ([2]; lipid 1000 μM (Table 4)): −1% | Mean % FD3 Permeation ([3]; lipid 1000 μM): 0%

CCCCC/C=C\C/C=C\C/C=C\C/C=C\CCCC(=O)O[C@H](COCCCCCCCCCCCCCCCC)COP(=O)([O-])OCC[N+](C)(C)C [C16-20:4 PC, 1-O-Hexadecyl-2-Arachidonoyl-sn-Glycero-3-Phosphocholine]
activity at 1000 µM [1, 4]: 96% | Mean % Relative Cytotoxic Effect (LDH) ([2]; human, 1 h, 1000 μM): 0% | Mean % FD3 Permeation ([3]; lipid 1000 μM): 0%

CCCCCCCCCCCCCCCCOC[C@H](COP(=O)([O-])OCC[N+](C)(C)C)OC(=O)NC [C-PAF, 1-O-Hexadecyl-2-N-Methylcarbamyl-sn-Glycero-3-Phosphocholine]
Mean % of Original TER Value ([1]; lipid 500 μM (Table 4)): 10% | Mean % of Original TER Value [1, 4]: 2% | Mean % Relative Cytotoxic Effect (LDH) ([2]; lipid 500 μM (Table 4)): 11% | Mean % Relative Cytotoxic Effect (LDH) ([2]; lipid 1000 μM (Table 4)): 15% | Mean % FD3 Permeation ([3]; lipid 500 μM): 11% | Mean % FD3 Permeation ([3]; lipid 1000 μM): 12% | permeation of FD3 relative to negative controls [3]: enhanced the permeation of FD3 above that of the negative controls

CCCCCCCCCCCCCCCCOC[C@H](COP(=O)(O)OCC[N+](C)(C)C)OCC [2-O-Ethyl-PAF, 1-O-Hexadecyl-2-O-Ethyl-sn-Glycero-3-Phosphorylcholine]
Mean % of Original TER Value ([1]; lipid 500 μM (Table 4)): 112% | Mean % of Original TER Value [1, 4]: 70% | Mean % Relative Cytotoxic Effect (LDH) ([2]; lipid 500 μM (Table 4)): 1% | Mean % Relative Cytotoxic Effect (LDH) ([2]; lipid 1000 μM (Table 4)): 2% | Mean % FD3 Permeation ([3]; lipid 500 μM): 1% | Mean % FD3 Permeation ([3]; lipid 1000 μM): 2% | permeation of FD3 relative to negative controls [3]: enhanced the permeation of FD3 above that of the negative controls

CCCCCCCCCCCCCCCC(=O)OC[C@H](COP(=O)([O-])OCC[N+](C)(C)C)OC(C)=O [16:0-02:0 PC, 1-Palmitoyl-2-Acetoyl-sn-Glycero-3-Phosphocholine]
activity at 1000 µM [1, 4]: 25% | Mean % Relative Cytotoxic Effect (LDH) ([2]; lipid 1000 μM (Table 4)): 23% | Mean % FD3 Permeation ([3]; lipid 1000 μM): 8%

CCCCCCCCCCCCCCCCOC[C@H](CO)OC(C)=O [C16-02:0 DG, 1-O-Hexadecyl-2-Acetoyl-sn-Glycerol]
activity at 1000 µM [1, 4]: 98% | Mean % Relative Cytotoxic Effect (LDH) ([2]; human, 1 h, 1000 μM): −3% | Mean % FD3 Permeation ([3]; lipid 1000 μM): 0%

1,3-Di(3-sn-Phosphatidyl)-sn-Glycerol Disodium Salt [Cardiolipin (sodium salt)]
Mean TER Reduction 1 hr. Post-treatment [1, 5]: 32% | Cytotoxic Effect (LDH) 1 hr. Post-treatments [2, 6]: 21%

CCCCCCCCCCCCC/C=C/[C@@H](O)[C@@H](N)CO[C@@H]1O[C@H](CO)[C@H](O)[C@H](O)[C@H]1O [Galactosyl sphingosine, D-Galactosyl-β1-1′-D-erythro-Sphingosine]
Mean TER Reduction 1 hr. Post-treatment ([1]; lipid 125 μM): 36% | Mean TER Reduction 1 hr. Post-treatment ([1]; lipid 250 μM): 43% | Mean TER Reduction 1 hr. Post-treatment ([1]; lipid 500 μM): 42% | Mean TER Reduction 1 hr. Post-treatment [1, 5]: 91% | Cytotoxic Effect (LDH) 1 hr. Post-treatments [2, 7]: 2% | Cytotoxic Effect (LDH) 1 hr. Post-treatments [2, 8]: 3% | Cytotoxic Effect (LDH) 1 hr. Post-treatments [2, 9]: 2% | Cytotoxic Effect (LDH) 1 hr. Post-treatments [2, 6]: 26%

Octylphenolpoly(ethyleneglycolether)x [Triton-X100, reference compound]
% of the original TER value ([1]; controls of the further test of lipids at 250 μM to 1000 μM (b219-b220)): −6% | Mean TER Reduction 1 hr. Post-treatment [1, 10]: 100% | Mean % of Original TER Value [1, 11]: −7% | % Relative Cytotoxic Effect (LDH) ([2]; in the presence of FITC-Dextran FD3 (Table 6)): 99% | Cytotoxic Effect (LDH) 1 hr. Post-treatments [2, 10]: 100% | Mean % Relative Cytotoxic Effect (LDH) [2, 11]: 100% | % Cytotoxicity ([2]; treatment alone, no lipid, apical LDH release (Table 8), Triton 0.3%): 100%

CCCCCCCCCCCCC/C=C/[C@@H](O)[C@H](COP(=O)(O)O)NC(C)=O.N [N-acetoyl ceramide-1-phosphate, (2S,3R,4E)-2-Acetoylaminooctadec-4-Ene-1,3-Diol-1-Phosphate (Ammonium Salt)]
Mean TER Reduction 1 hr. Post-treatment ([1]; lipid 125 μM): 24% | Mean TER Reduction 1 hr. Post-treatment ([1]; lipid 250 μM): 23% | Mean TER Reduction 1 hr. Post-treatment ([1]; lipid 500 μM): 29% | Mean TER Reduction 1 hr. Post-treatment [1, 5]: 42% | Cytotoxic Effect (LDH) 1 hr. Post-treatments [2, 7]: 2% | Cytotoxic Effect (LDH) 1 hr. Post-treatments [2, 8]: 2% | Cytotoxic Effect (LDH) 1 hr. Post-treatments [2, 9]: 2% | Cytotoxic Effect (LDH) 1 hr. Post-treatments [2, 6]: 2%

1-Alkyl-2-Acetoyl-sn-Glycero-3-Phosphocholine [Platelet-Activation Factor]
Mean TER Reduction 1 hr. Post-treatment [1, 5]: 35% | Cytotoxic Effect (LDH) 1 hr. Post-treatments [2, 6]: 19%
